Source: publication PMC6435570, “Zafirlukast Is a Dual Modulator of Human Soluble Epoxide Hydrolase and Peroxisome Proliferator-Activated Receptor γ” (Frontiers in Pharmacology, 2019)
Entries after “also recorded” stand apart in the source; their conditions may differ.

Tests used:
[1] = biological target: T1, human PPARα ligand binding domain (Homo sapiens, UniProt Q07869); experiment: PPAR reporter gene assay (Gal4 hybrid, PPARα); format: cell-based; settings: HEK-293T, reference GW7647 1 μM, tested up to 10 μM
T1 construct: expressed in transfected cells; host or cells: HEK-293T
T1 sequence (Q07869 239-466 limits assumed): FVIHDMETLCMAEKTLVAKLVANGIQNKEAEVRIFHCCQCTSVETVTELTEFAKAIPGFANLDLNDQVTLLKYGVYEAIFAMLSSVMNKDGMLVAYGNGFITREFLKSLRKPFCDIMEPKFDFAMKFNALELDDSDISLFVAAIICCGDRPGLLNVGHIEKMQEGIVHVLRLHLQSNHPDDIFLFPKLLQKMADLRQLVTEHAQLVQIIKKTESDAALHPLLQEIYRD
Description: HEK-293T cells were seeded in 96-well plates (2.5 × 10^4 cells/well) and were allowed to adhere overnight. Before transfection, medium was changed to Opti-MEM without supplements. Transient plasmid transfection was carried out using Lipofectamine LTX reagent (Invitrogen, Carlsbad, CA, United States) according to the manufacturer’s protocol with pFR-Luc (Stratagene, La Jolla, CA, United States), pRL-SV40 (Promega, Fitchburg, MA, United States) and pFA-CMV-PPAR-LBD ([Rau et al., 2006]). 5 h after transfection, medium was changed to Opti-MEM supplemented with penicillin (100 U/mL) and streptomycin (100 μg/mL), now additionally containing 0.1% DMSO and the respective test compound or 0.1% DMSO alone as untreated control. Each concentration was tested in triplicates and each experiment was repeated independently at least four times. Following overnight (12–16 h) incubation with the test compounds, cells were assayed for luciferase activity using the Dual-Glo^TM Luciferase Assay System (Promega, Fitchburg, MA, United States) according to the manufacturer’s protocol. Luminescence was measured with an Infinite M200 luminometer (Tecan Group Ltd., Männedorf, Switzerland). Normalization of transfection efficiency and cell growth was done by division of firefly luciferase data by renilla luciferase data and multiplying the value by 1000 resulting in relative light units (RLU). Fold activation was obtained by dividing the mean RLU of a test compound at a respective concentration by the mean RLU of untreated control. Relative activation was obtained by dividing the fold activation of a test compound at a respective concentration by the fold activation of the respective PPARα, γ or δ full agonist GW-7647, pioglitazone or L165,041 at 1 μM. EC50 and standard deviation were calculated with the mean relative activation values of at least four independent experiments by SigmaPlot 10.0 (Systat Software GmbH, Erkrath, Germany) using a four parameter logistic regression. […]

[2] = system: PPARγ, FABP-4 and CD36 protein in 3T3-L1 adipocytes; experiment: Protein expression in differentiated 3T3-L1 adipocytes (Western Blot); format: cell-based, murine; settings: rosiglitazone 2 μM; for PPARγ isoforms γ1 and γ2 protein expression: 3T3-L1 differentiated with cocktail plus compound; for Protein expression of PPARγ target genes FABP-4 and CD36: after 14 days
Description: 3T3-L1 cells were differentiated into adipocytes for 14 days according to the protocol of [Zebisch et al. (2012)]. For this, cells were seeded in 6-well plates ([…]) and differentiation was induced after 48 h by addition of a differentiation cocktail containing 1 μg/mL insulin, 0.25 μM dexamethasone and 0.5 mM isobutylmethylxanthine (IBMX) in DMEM supplemented with 10% FCS and 1% PS. […] After 2 days, medium was replaced by DMEM supplemented with 10% FCS, 1% PS and 1 μg/mL insulin for 2 more days. Afterwards, cells were kept for lipid droplet accumulation in DMEM containing 10% FCS and 1% PS until day 15. Media were replaced every other day.
(§1) Total 3T3-L1 or HEP-G2 cell lysates were prepared in lysis buffer (20 mM Tris-HCl, pH 7.4, 150 mM NaCl, 2 mM EDTA, 1% Triton X-100, 0.5% NP-40) supplemented with protease and phosphatase inhibitors (PhosSTOP^TM + cOmplete^TM Mini, Roche Diagnostics GmbH, Mannheim, Germany). Protein concentrations were quantified using the Pierce^TM BCA Protein Assay Kit (Thermo Scientific, Waltham, MA, United States). Total protein (30 μg/lane) was separated by SDS-polyacrylamide gel electrophoresis and transferred to nitrocellulose membranes (GE Healthcare Life Sciences, Little Chalfont, United Kingdom). Membranes were blocked with Odyssey blocking reagent (LI-COR Biosciences, Bad Homburg, Germany) for 1 h at room temperature. Ensuing, membranes were incubated with antibodies against CD36 (EPR6573, Abcam, Cambridge, United Kingdom), PPARγ (E-8, Santa Cruz Biotechnology, Heidelberg, Germany), FABP-4 (C-15, Santa Cruz Biotechnology, Heidelberg, Germany) or PPARγ Ser273 (Bioss Antibodies Inc., Woburn, MA, United States) overnight at 4°C. Afterwards, membranes were washed and incubated with fluorescence conjugated secondary antibodies (IRDye, LI-COR Biosciences, Bad Homburg, Germany). Protein antibody complexes were visualized on the Odyssey Infrared Imaging System (LI-COR Biosciences, Bad Homburg, Germany). β-actin (I-19, goat, polyclonal, Santa Cruz Biotechnology, Heidelberg, Germany) was used as loading control. The density of the immune reactive bands was analyzed using the Image Studio 5.2 software (LI-COR Biosciences, Bad Homburg, Germany).
As master regulator of adipocyte differentiation in men and mice, PPARγ plays a crucial role in the cell’s commitment to the adipocyte lineage by controlling important functions such as intracellular biosynthesis, transport and accumulation of lipids. Murine 3T3-L1 fibroblasts are a well characterized in vitro tool to study PPARγ induced adipocyte differentiation. These cells can be differentiated from fibroblasts into adipocytes by an activation cocktail (0.5 mM IBMX, 1 μg/mL insulin, 0.25 μM dexamethasone) together with the potential PPARγ agonist. Upon differentiation, different parameters such as lipid accumulation and PPARγ target gene expression can be assessed to investigate the PPARγ activating potential of the compounds of interest. […] Rosiglitazone (2 μM) was used as positive control. This was followed by insulin (1 μg/mL) treatment for another 48 h. After this, cells were kept in growth medium for a week to complete the differentiation process and allow intracellular lipid accumulation. Subsequently, the cells were stained with Oil Red O solution to investigate the extent of cytoplasmic lipid droplet accumulation as a measure for cell differentiation.
In addition to mRNA expression, the protein expression levels of the two PPARγ target genes FABP-4 and CD36 in differentiated 3T3-L1 cells after 14 days were investigated. For this, total protein lysates were separated by gel electrophoresis followed by Western Blotting (Figure 3E,F and Supplementary Figures S2A,B).

recombinant human sEH = biological target: T2, recombinant human sEH (Homo sapiens, UniProt P34913); experiment: Recombinant sEH activity (PHOME fluorescence assay); format: biochemical; settings: PHOME 50 μM, 30 min preincubation at RT, read-out: sEH rec. IC50
T2 sequence (P34913 1-555): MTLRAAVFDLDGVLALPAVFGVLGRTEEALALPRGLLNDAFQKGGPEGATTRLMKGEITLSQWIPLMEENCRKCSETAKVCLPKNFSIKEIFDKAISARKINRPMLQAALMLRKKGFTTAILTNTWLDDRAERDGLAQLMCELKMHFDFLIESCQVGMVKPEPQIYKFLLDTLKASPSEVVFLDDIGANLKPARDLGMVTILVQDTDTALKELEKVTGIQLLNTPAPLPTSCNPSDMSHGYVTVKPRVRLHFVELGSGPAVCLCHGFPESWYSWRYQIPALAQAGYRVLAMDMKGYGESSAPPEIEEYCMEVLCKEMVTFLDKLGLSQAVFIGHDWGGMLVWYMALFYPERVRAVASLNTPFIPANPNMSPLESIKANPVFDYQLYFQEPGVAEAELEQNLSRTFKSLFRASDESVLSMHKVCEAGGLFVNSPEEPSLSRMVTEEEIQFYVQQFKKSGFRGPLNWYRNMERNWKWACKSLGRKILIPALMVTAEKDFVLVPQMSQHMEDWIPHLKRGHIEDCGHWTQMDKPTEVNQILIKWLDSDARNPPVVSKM
Description: For determination of IC50 values of recombinant human sEH a 96-well fluorescence-based assay system was used as described before ([Blöcher et al., 2016a]). In brief, non-fluorescent PHOME (3 phenylcyano-(6-methoxy-2-naphthalenyl)methyl ester 2-oxiraneacetic acid, Cayman Chemicals, Ann Arbor, MI, United States) was used as substrate, which is hydrolyzed by sEH to the fluorescent 6-methoxynaphthaldehyde ([Rau et al., 2006]). The formation of the fluorescent product was measured (λem = 330 nm, λex = 465 nm) by an Infinite F200 Pro plate reader (Tecan Group Ltd., Männedorf, Switzerland). For that purpose, 2 μg recombinant human sEH in 100 μl bis-Tris buffer (pH 7, 0.1 mg/mL BSA, 0.01% Triton-X 100) was applied per well. This protein solution was then incubated with different concentrations of the test compounds for 30 min at RT. After this, 10 μL of the substrate were added (final concentration 50 μM). The formation of 6-methoxynaphthaldehyde was monitored for 30 min. All concentrations were tested in triplicate wells.

[3] = system: PPARγ2 phosphorylation at serine 273; experiment: TNFα triggered PPARγ Ser273 phosphorylation in 3T3-L1 adipocytes (Western Blot); format: cell-based, murine; settings: zafirlukast 1 or 10 μM or rosiglitazone 2 μM for 45 min, then TNFα 50 ng/mL 30 min
Description: as §1, with “Ensuing, membranes were incubated with antibodies against CD36 (EPR6573, Abcam, Cambridge, United Kingdom), PPARγ (E-8, Santa Cruz Biotechnology, Heidelberg, Germany), FABP-4 (C-15, Santa Cruz Biotechnology, Heidelberg, Germany) or PPARγ Ser273 (Bioss Antibodies Inc., Woburn, MA, United States) overnight at 4°C.” left out, “Protein antibody complexes were visualized on the Odyssey Infrared Imaging System (LI-COR Biosciences, Bad Homburg, Germany). β-actin (I-19, goat, polyclonal, Santa Cruz Biotechnology, Heidelberg, Germany) was used as loading control.” left out
We induced this post-translational modification by short-term treatment of the differentiated cells with the cytokine TNFα, generating a pro-inflammatory milieu. […] For this, we used an assay system in which the recruitment of the fluorescence-tagged PPARγ coactivator CBP to the PPARγ-LBD was assessed by time-resolved FRET technique in presence and absence of rosiglitazone.

CysLT1R = settings: Table 2 comparison column; no method, no reference given; cited from earlier work
[4] = set-up: method as in Brocks et al., 1996; Knorr et al., 2001; Karonen et al., 2012; settings: ref Brocks et al., 1996; Knorr et al., 2001; Karonen et al., 2012; cited from earlier work

PPARα EC50 [1]	IC50 (recombinant human sEH) [nM]	SMILES	PPARγ isoforms γ1 and γ2 protein expression [2]	Protein expression of PPARγ target genes FABP-4 and CD36 [2]	TNFα induced phosphorylation of PPARγ2 at serine 273 [3]	IC50 (CysLT1R) [nM]	Plasma protein binding [4]
i.a. @ 10 μM		CC(C)(O)c1ccccc1CC[C@@H](SCC1(CC(=O)O)CC1)c1cccc(/C=C/c2ccc3ccc(Cl)cc3n2)c1 [Montelukast, montelukast]	not affected	no effect at all			
i.a. @ 10 μM	1970 ± 80	COc1cc(C(=O)NS(=O)(=O)c2ccccc2C)ccc1Cc1cn(C)c2ccc(NC(=O)OC3CCCC3)cc12 [Zafirlukast, zafirlukast]	upregulated the protein levels	induced target gene expression as well but to a weaker extent	inhibited this phosphorylation; also recorded: completely revert this phosphorylation	5	High
